Laboratory results taken from patent US20260199239A1, “IONIZABLE LIPIDS WITH MALONATE TAILS” (ModernaTX, Inc., priority 2022, published 2026).
“And” between values parts separate entries of the source, which are not always exact repeats. Equal values may be shown once.

Tests used:
[1] = LNP particle size and polydispersity index (PDI); format: physicochemical; conditions: LNP lipid:PEG-1:DSPC:Cholesterol 48:2:11:39, hEPO mRNA, 20 mM Tris 8% Sucrose pH 7.4
Protocol: A Zetasizer Nano ZS (Malvern Instruments Ltd, Malvern, Worcestershire, UK) can be used to determine the particle size, the polydispersity index (PDI) and the zeta potential of the nanoparticle compositions in 1×PBS in determining particle size and 15 mM PBS in determining zeta potential.
LNPs may be characterized by a variety of methods. For example, microscopy (e.g., transmission electron microscopy or scanning electron microscopy) may be used to examine the morphology and size distribution of a nanoparticle composition. Dynamic light scattering or potentiometry (e.g., potentiometric titrations) may be used to measure zeta potentials. Dynamic light scattering may also be utilized to determine particle sizes. Instruments such as the Zetasizer Nano ZS (Malvern Instruments Ltd, Malvern, Worcestershire, UK) may also be used to measure multiple characteristics of a nanoparticle composition, such as particle size, polydispersity index, and zeta potential.
(§1) LNPs comprising ionizable lipids described herein were formulated according to Table 2 and the following general procedure.
(§2) General procedure for one-pot LNP formation: Lipid stock solutions in ethanol are mixed with mRNA in 25 mM acetate solution at a 3:1 ratio in a microfluidic mixer. The resulting LNPs, which are at approximately pH 5 and 25% EtOH, are buffer exchanged by dialysis into the storage buffer. The LNP solutions are then concentrated by Amicon® and purified by a 0.2 uM sterile filter.

[2] = Endotoxin content of LNP formulation; conditions: LNP lipid:PEG-1:DSPC:Cholesterol 48:2:11:39, hEPO mRNA
From the text: as §1

[3] = Osmolality of LNP formulation; format: physicochemical; conditions: LNP formulation in 20 mM Tris 8% Sucrose storage buffer
From the text: as §1

pH of LNP formulation = format: physicochemical; conditions: LNP formulation in 20 mM Tris 8% Sucrose storage buffer
From the text: as §1

hEPO protein expression = hEPO protein expression in vivo after systemic administration of LNPs
Protocol: In order to monitor how effectively various nanoparticle compositions deliver therapeutic and/or prophylactic agents to targeted cells, different nanoparticle compositions including a particular therapeutic and/or prophylactic agent (for example, a modified or naturally occurring RNA such as an mRNA) are prepared and administered to animal populations. Animals (e.g., mice, rats, or non-human primates) are intravenously, intramuscularly, intraarterially, or intratumorally administered a single dose including a nanoparticle composition comprising a lipid of the disclosure and an mRNA expressing a protein, e.g., human erythropoietin (hEPO) or luciferase. A control composition including PBS may also be employed.
Upon administration of nanoparticle compositions to an animal, dose delivery profiles, dose responses, and toxicity of particular formulations and doses thereof can be measured by enzyme-linked immunosorbent assays (ELISA), bioluminescent imaging, or other methods. For nanoparticle compositions including mRNA, time courses of protein expression can also be evaluated. Samples collected from the animals for evaluation may include blood, sera, and tissue (for example, muscle tissue from the site of an intramuscular injection and internal tissue); sample collection may involve sacrifice of the animals.
ELISA test kits may provide hEPO concentrations in milli International Units per mL (mIU/mL), e.g., per mL of tested serum. Typically, the EPO concentration of unknown sample is calculated from a calibration curve. Standards (used for the calibration curve) are calibrated according to the 2. IRP WHO preparation. In some embodiments, mIU/mL corresponds to […]. Nanoparticle compositions including mRNA are useful in the evaluation of the efficacy and usefulness of various formulations for the delivery of therapeutic and/or prophylactic agents. Higher levels of protein expression induced by administration of a composition including an mRNA will be indicative of higher mRNA translation and/or nanoparticle composition mRNA delivery efficiencies. As the non-RNA components are not thought to affect translational machineries themselves, a higher level of protein expression is likely indicative of a higher efficiency of delivery of the therapeutic and/or prophylactic agent by a given nanoparticle composition relative to other nanoparticle compositions or the absence thereof.
In some embodiments, an in vivo expression assay may be used to assess potency of expression of lipids of the disclosure. In some embodiments, the protein expression (hEPO) may be measured in mice following administration of a nanoparticle comprising a lipid of the disclosure (e.g., a loaded LNP). In some embodiments, lipid nanoparticles of the instant disclosure may be intravenously administered to mice (e.g., CD-1 mice).
In some embodiments, the concentration of hEPO in serum may be tested after administration (e.g., about six hours after injection). In some embodiments, residual levels of the lipids of the disclosure in organs or tissue of the subject after administration (e.g., 6 h, 12 h, 18 h, 24 h, 36h, or 48 h after administration) are measured. In some embodiments, the residual levels of the lipids of the disclosure in the liver are measured. In some embodiments, an in vitro expression assay may be used to assess nanoparticles of the disclosure. In some embodiments, cells (e.g., HeLa) may be plated in an imaging plate (e.g., poly-D-lysine coated) and cultured in serum (e.g., human serum, mouse serum, cynomolgus monkey serum or fetal bovine serum). In some embodiments, lipid nanoparticles of the disclosure comprising an mRNA expressing fluorescent protein (e.g., green fluorescent protein (GFP)) and a fluorescent lipid (e.g., rhodamine-DOPE) may be added to the plate and the plate imaged for uptake and expression. In some embodiments, expression may be evaluated by measuring fluorescence (e.g., from GFP). […]

[4] = mRNA encapsulation by the LNP (% EE, total mRNA in TX); format: physicochemical; conditions: LNP lipid:PEG-1:DSPC:Cholesterol 48:2:11:39, hEPO mRNA
Protocol: For nanoparticle compositions including an RNA, a QUANT-IT™ RIBOGREEN® RNA assay (Invitrogen Corporation Carlsbad, CA) can be used to evaluate the encapsulation of an RNA by the nanoparticle composition. The samples are diluted to a concentration of approximately 5 μg/mL in a TE buffer solution (10 mM Tris-HCl, 1 mM EDTA, pH 7.5). 50 μL of the diluted samples are transferred to a polystyrene 96 well plate and either 50 μL of TE buffer or 50 μL of a 2% Triton X-100 solution is added to the wells. The plate is incubated at a temperature of 37° C. for 15 minutes. The RIBOGREEN® reagent is diluted 1:100 in TE buffer, and 100 μL of this solution is added to each well. The fluorescence intensity can be measured using a fluorescence plate reader (Wallac Victor 1420 Multilablel Counter; Perkin Elmer, Waltham, MA) at an excitation wavelength of, for example, about 480 nm and an emission wavelength of, for example, about 520 nm. The fluorescence values of the reagent blank are subtracted from that of each of the samples and the percentage of free RNA is determined by dividing the fluorescence intensity of the intact sample (without addition of Triton X-100) by the fluorescence value of the disrupted sample (caused by the addition of Triton X-100).
The efficiency of encapsulation of a therapeutic and/or prophylactic agent describes the amount of therapeutic and/or prophylactic agent that is encapsulated or otherwise associated with an LNP after preparation, relative to the initial amount provided. The encapsulation efficiency is desired to be high (e.g., close to 100%). The encapsulation efficiency may be measured, for example, by comparing the amount of therapeutic and/or prophylactic agent in a solution containing a loaded LNP before and after breaking up the loaded LNP with one or more organic solvents or detergents. Fluorescence may be used to measure the amount of free therapeutic and/or prophylactic agent (e.g., RNA) in a solution. For the loaded LNPs formulated with lipids of the disclosure, the encapsulation efficiency of a therapeutic and/or prophylactic agent is at least 50%, for example 50%, 55%, 60%, 65%, 70%, 75%, 80%, 85%, 90%, 91%, 92%, 93%, 94%, 95%, 96%, 97%, 98%, 99%, or 100%. In some embodiments, the encapsulation efficiency is at least 80%. In some embodiments, the encapsulation efficiency is at least 90%. In some embodiments, the encapsulation efficiency of the therapeutic and/or prophylactic agent is between 80% and 100%.
as §1, §2

[5] = Table 3B groups 1A-8A, ratio to L5 LNP
[6] = Table 3A groups 1-8, ratio to L5 LNP

| Compound | PDI [1] | Size (nm) [1] | Endotoxin (EU/mL) [2] [EU/mL] | Osmolality (mOsm/kg) [3] | pH (pH of LNP formulation) | 6 hr protein expression ratio cf. L5 (hEPO protein expression; [5]) | 24 hr protein expression ratio cf. L5 (hEPO protein expression; [5]) | % EE [4] | 6 hr protein expression ratio cf. L5 (hEPO protein expression; [6]) | 24 hr protein expression ratio cf. L5 (hEPO protein expression; [6]) |
| --- | --- | --- | --- | --- | --- | --- | --- | --- | --- | --- |
| CCCCCCCCC(CCCCCCCC)OC(=O)CCCCCCCN(CCO)CCCCCCCC(=O)OCCC(CCCC)CCCC [Compound L6, reference compound] | 0.166 | 58.2 nm | 2.3 | 321 mOsm/kg | 7.468 | 0.94 | 0.84 | 96.9% | – | – |
| CCCCCCCCC(CCCCCCCC)OC(=O)CCCCCCCN(CCCCCCC(C(=O)OCCCCCC)C(=O)OCCCCCC)CCCNC(=O)CC [Compound M5, Dihexyl 2-(6-((8-(heptadecan-9-yloxy)-8-oxooctyl)(3-propionamidopropyl)amino)hexyl)malonate] | 0.496 | 126.7 nm | 2.7 | 320 mOsm/kg | 6.962 | 1.37 | 1.15 | 69.8% | – | – |
| CCCCCCCCCOC(=O)CCCCCCCN(CCO)CCCCCCCC(=O)OC(CCCCCCCC)CCCCCCCC [Compound L4, reference compound] | – | 74.9 nm and 104.5 nm | 2.3 | 317 mOsm/kg and 311 mOsm/kg | 7.444 | 0.08 | 0.07 | 94.8% and 92.6% | 0.1 | 0.1 |
| CCCCCCCCC(CC)OC(=O)CCCCCCCN(CCCCCCCC(=O)OC(CCCCCCCC)CCCCCCCC)CCCNc1c(NC)c(=O)c1=O (centres unmarked) [Compound L5, reference compound] | 0.117 and 0.119 | 60.4 nm and 59.9 nm | 2 | 313 mOsm/kg and 320 mOsm/kg | 7.456 | 1.00 | 1.00 | 95.2% and 96.1% | 1.0 | 1.0 |
| CCCCCCCCC(CCCCCCCC)OC(=O)CCCCCCCN(CCCCCCC(C(=O)OCCCCCC)C(=O)OCCCCCC)CCCNc1c(NC)c(=O)c1=O [Compound M3, Dihexyl 2-(6-((8-(heptadecan-9-yloxy)-8-oxooctyl)(3-((2-(methylamino)-3,4-dioxocyclobut-1-en-1-yl)amino)propyl)amino)hexyl)malonate] | 0.148 and 0.132 | 59.3 nm and 59.1 nm | 2 | 317 mOsm/kg and 318 mOsm/kg | 7.155 | 2.53 | 2.42 | 97.8% and 98.3% | 1.0 | 1.2 |
| CCCCCCCCC(CCCCCCCC)OC(=O)CCCCCCCN(CCCCCCCC(=O)OCCC(CCCC)CCCC)CCCNS(=O)(=O)CC [Compound L2, reference compound] | 0.177 | 60.7 nm | – | 315 mOsm/kg | – | – | – | 95.8% | 0.7 | 0.8 |
| CCCCCCCCC(CCCCCCCC)OC(=O)CCCCCCCN(CCCCCCC(C(=O)OCCCCCC)C(=O)OCCCCCC)CCCNC(C)=O [Compound M4, Dihexyl 2-(6-((3-acetamidopropyl)(8-(heptadecan-9-yloxy)-8-oxooctyl)amino)hexyl)malonate] | 0.099 | 68.7 nm | 2.6 | 321 mOsm/kg | 7.450 | 0.34 | 0.36 | 92.2% | – | – |
| CCCCCCCCOC(=O)C(CCCCCCN(CCO)CCCCCCCC(=O)OC(CCCCCCCC)CCCCCCCC)C(=O)OCCCCCCCC [Compound M2, Dioctyl 2-(6-((8-(heptadecan-9-yloxy)-8-oxooctyl)(2-hydroxyethyl)amino)hexyl)malonate] | 0.186 | 58.0 nm | – | 315 mOsm/kg | – | – | – | 97.9% | 0.3 | 0.3 |
